Patent US12479840B2, “HMG-CoA reductase degradation inducing compound” (Uppthera, priority 2020, dated 2025)

target: T1, HMG-CoA reductase (Homo sapiens, UniProt P04035); experiment: HMG-CoA reductase (HMGCR) degradation in HepG2 cells by western blotting; format: cell-based; settings: treated for 18 hours, ratio of HMG-CoA reductase to GAPDH, read-out: DC50
T1 construct: endogenous in cells; host or cells: HepG2 (Korea Cell Line Bank)
T1 sequence (P04035 1-888): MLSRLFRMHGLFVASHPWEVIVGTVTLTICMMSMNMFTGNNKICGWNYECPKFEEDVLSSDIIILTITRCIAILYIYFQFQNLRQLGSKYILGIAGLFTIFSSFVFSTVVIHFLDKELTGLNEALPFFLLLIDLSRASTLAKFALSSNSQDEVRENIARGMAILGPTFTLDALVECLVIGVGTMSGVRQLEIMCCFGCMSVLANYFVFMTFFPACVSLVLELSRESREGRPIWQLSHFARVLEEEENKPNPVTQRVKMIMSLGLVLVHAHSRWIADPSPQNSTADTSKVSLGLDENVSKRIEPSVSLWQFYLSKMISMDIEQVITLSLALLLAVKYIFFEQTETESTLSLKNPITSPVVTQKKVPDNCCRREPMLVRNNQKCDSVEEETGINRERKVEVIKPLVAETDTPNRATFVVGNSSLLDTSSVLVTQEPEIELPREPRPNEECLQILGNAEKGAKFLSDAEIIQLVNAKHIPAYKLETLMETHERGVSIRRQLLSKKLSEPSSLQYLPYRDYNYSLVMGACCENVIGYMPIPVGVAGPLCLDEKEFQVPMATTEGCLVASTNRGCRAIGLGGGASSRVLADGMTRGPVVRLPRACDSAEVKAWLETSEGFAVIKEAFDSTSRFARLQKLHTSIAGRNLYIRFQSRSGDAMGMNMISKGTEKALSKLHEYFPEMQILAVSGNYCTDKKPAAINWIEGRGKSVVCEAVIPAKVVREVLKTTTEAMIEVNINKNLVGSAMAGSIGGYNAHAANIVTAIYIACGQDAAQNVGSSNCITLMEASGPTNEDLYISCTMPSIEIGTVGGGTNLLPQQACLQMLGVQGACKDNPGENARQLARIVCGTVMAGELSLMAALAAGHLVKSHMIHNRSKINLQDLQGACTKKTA
Outline: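 Western blot read-out: HMGCR protein probed (1:500, 16 hours at 4° C) alongside GAPDH loading control on 15 μg BCA-normalised RIPA lysates. Lysates came from HepG2 cells (P105–P110) exposed for 18 hours to a 10-point, three-fold series starting at 3 μM.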

SMILES	DC50 [nM]
CO[C@H]1CC(=O)O[C@H](CC[C@@H]2[C@@H]3C(=C[C@H](C)C[C@@H]3OC(=O)NCCOCCOCCNc3cccc4c3C(=O)N(C3CCC(=O)NC3=O)C4=O)C=C[C@@H]2C)C1 (stereo partly drawn) [Compound 69, (1S,3R,7S,8S,8aR)-8-(2-((2R,4R)-4-methoxy-6-oxotetrahydro-2H-pyran-2-yl)ethyl)-3,7-dimethyl-1,2,3,7,8,8a-hexahydronaphthalen-1-yl (2-(2-(2-((2-(2,6-dioxopiperidin-3-yl)-1,3-dioxoisoindolin-4-yl)amino)ethoxy)ethoxy)ethyl)carbamate]	< 50
CC(C)[Si](O[C@H]1CC(=O)O[C@H](CC[C@@H]2[C@@H]3C(=C[C@H](C)C[C@@H]3OC(=O)NCCOCCOCCNc3cccc4c3C(=O)N(C3CCC(=O)NC3=O)C4=O)C=C[C@@H]2C)C1)(C(C)C)C(C)C (stereo partly drawn) [Compound 70, (1S,3R,7S,8S,8aR)-3,7-dimethyl-8-(2-((2R,4R)-6-oxo-4-((triisopropylsilyl)oxy)tetrahydro-2H-pyran-2-yl)ethyl)-1,2,3,7,8,8a-hexahydronaphthalen-1-yl (2-(2-(2-((2-(2,6-dioxopiperidin-3-yl)-1,3-dioxoisoindolin-4-yl)amino)ethoxy)ethoxy)ethyl)carbamate]	< 50
C[C@H]1C=C2C=C[C@H](C)[C@H](CC[C@@H]3C[C@@H](O[Si](c4ccccc4)(c4ccccc4)C(C)(C)C)CC(=O)O3)[C@H]2[C@@H](OC(=O)NCCOCCOCCNc2cccc3c2C(=O)N(C2CCC(=O)NC2=O)C3=O)C1 (stereo partly drawn) [Compound 71, (1S,3R,7S,8S,8aR)-8-(2-((2R,4R)-4-((tert-butyldiphenylsilyl)oxy)-6-oxotetrahydro-2H-pyran-2-yl)ethyl)-3,7-dimethyl-1,2,3,7,8,8a-hexahydronaphthalen-1-yl (2-(2-(2-((2-(2,6-dioxopiperidin-3-yl)-1,3-dioxoisoindolin-4-yl)amino)ethoxy)ethoxy)ethyl)carbamate]	< 50
C[C@H]1C=C2C=C[C@H](C)[C@H](CC[C@@H]3C[C@@H](O[Si](C)(C)C(C)(C)C)CC(=O)O3)[C@H]2[C@@H](OC(=O)NCCCCN2CCC(Nc3cccc4c3C(=O)N(C3CCC(=O)NC3=O)C4=O)CC2)C1 (stereo partly drawn) [Compound 72, (1S,3R,7S,8S,8aR)-8-(2-((2R,4R)-4-((tert-butyldimethylsilyl)oxy)-6-oxotetrahydro-2H-pyran-2-yl)ethyl)-3,7-dimethyl-1,2,3,7,8,8a-hexahydronaphthalen-1-yl (4-(4-((2-(2,6-dioxopiperidin-3-yl)-1,3-dioxoisoindolin-4-yl)amino)piperidin-1-yl)butyl)carbamate]	< 50
C[C@H]1C=C2C=C[C@H](C)[C@H](CC[C@@H]3C[C@@H](O)CC(=O)O3)[C@H]2[C@@H](OC(=O)NCCCCN2CCC(Nc3cccc4c3C(=O)N(C3CCC(=O)NC3=O)C4=O)CC2)C1 (stereo partly drawn) [Compound 73, (1S,3R,7S,8S,8aR)-8-(2-((2R,4R)-4-hydroxy-6-oxotetrahydro-2H-pyran-2-yl)ethyl)-3,7-dimethyl-1,2,3,7,8,8a-hexahydronaphthalen-1-yl (4-(4-((2-(2,6-dioxopiperidin-3-yl)-1,3-dioxoisoindolin-4-yl)amino)piperidin-1-yl)butyl)carbamate]	< 50
C[C@H]1C=C2C=C[C@H](C)[C@H](CC[C@@H]3C[C@@H](O[Si](C)(C)C(C)(C)C)CC(=O)O3)[C@H]2[C@@H](OC(=O)NCCCCCNC(=O)COc2cccc3c2C(=O)N(C2CCC(=O)NC2=O)C3=O)C1 (stereo partly drawn) [Compound 74, (1S,3R,7S,8S,8aR)-8-(2-((2R,4R)-4-((tert-butyldimethylsilyl)oxy)-6-oxotetrahydro-2H-pyran-2-yl)ethyl)-3,7-dimethyl-1,2,3,7,8,8a-hexahydronaphthalen-1-yl (5-(2-((2-(2,6-dioxopiperidin-3-yl)-1,3-dioxoisoindolin-4-yl)oxy)acetamido)pentyl)carbamate]	< 50
C[C@H]1C=C2C=C[C@H](C)[C@H](CC[C@@H]3C[C@@H](O)CC(=O)O3)[C@H]2[C@@H](OC(=O)NCCCCCNC(=O)COc2cccc3c2C(=O)N(C2CCC(=O)NC2=O)C3=O)C1 (stereo partly drawn) [Compound 75, (1S,3R,7S,8S,8aR)-8-(2-((2R,4R)-4-hydroxy-6-oxotetrahydro-2H-pyran-2-yl)ethyl)-3,7-dimethyl-1,2,3,7,8,8a-hexahydronaphthalen-1-yl (5-(2-((2-(2,6-dioxopiperidin-3-yl)-1,3-dioxoisoindolin-4-yl)oxy)acetamido)pentyl)carbamate]	< 50
C[C@H]1C=C2C=C[C@H](C)[C@H](CC[C@@H]3C[C@@H](O[Si](C)(C)C(C)(C)C)CC(=O)O3)[C@H]2[C@@H](OC(=O)NCCCCCCCC(=O)Nc2cccc3c2C(=O)N(C2CCC(=O)NC2=O)C3=O)C1 (stereo partly drawn) [Compound 76, (1S,3R,7S,8S,8aR)-8-(2-((2R,4R)-4-((tert-butyldimethylsilyl)oxy)-6-oxotetrahydro-2H-pyran-2-yl)ethyl)-3,7-dimethyl-1,2,3,7,8,8a-hexahydronaphthalen-1-yl (8-((2-(2,6-dioxopiperidin-3-yl)-1,3-dioxoisoindolin-4-yl)amino)-8-oxooctyl)carbamate]	< 50
C[C@H]1C=C2C=C[C@H](C)[C@H](CC[C@@H]3C[C@@H](O)CC(=O)O3)[C@H]2[C@@H](OC(=O)NCCCCCCCC(=O)Nc2cccc3c2C(=O)N(C2CCC(=O)NC2=O)C3=O)C1 (stereo partly drawn) [Compound 77, (1S,3R,7S,8S,8aR)-8-(2-((2R,4R)-4-hydroxy-6-oxotetrahydro-2H-pyran-2-yl)ethyl)-3,7-dimethyl-1,2,3,7,8,8a-hexahydronaphthalen-1-yl (8-((2-(2,6-dioxopiperidin-3-yl)-1,3-dioxoisoindolin-4-yl)amino)-8-oxooctyl)carbamate]	< 50
C[C@H]1C=C2C=C[C@H](C)[C@H](CC[C@@H]3C[C@@H](O[Si](C)(C)C(C)(C)C)CC(=O)O3)[C@H]2[C@@H](OC(=O)NCc2cccc(CNC(=O)COc3cccc4c3C(=O)N(C3CCC(=O)NC3=O)C4=O)c2)C1 (stereo partly drawn) [Compound 78, (1S,3R,7S,8S,8aR)-8-(2-((2R,4R)-4-((tert-butyldimethylsilyl)oxy)-6-oxotetrahydro-2H-pyran-2-yl)ethyl)-3,7-dimethyl-1,2,3,7,8,8a-hexahydronaphthalen-1-yl (3-((2-((2-(2,6-dioxopiperidin-3-yl)-1,3-dioxoisoindolin-4-yl)oxy)acetamido)methyl)benzyl)carbamate]	< 50
C[C@H]1C=C2C=C[C@H](C)[C@H](CC[C@@H]3C[C@@H](O)CC(=O)O3)[C@H]2[C@@H](OC(=O)NCc2cccc(CNC(=O)COc3cccc4c3C(=O)N(C3CCC(=O)NC3=O)C4=O)c2)C1 (stereo partly drawn) [Compound 79, (1S,3R,7S,8S,8aR)-8-(2-((2R,4R)-4-hydroxy-6-oxotetrahydro-2H-pyran-2-yl)ethyl)-3,7-dimethyl-1,2,3,7,8,8a-hexahydronaphthalen-1-yl (3-((2-((2-(2,6-dioxopiperidin-3-yl)-1,3-dioxoisoindolin-4-yl)oxy)acetamido)methyl)benzyl)carbamate]	< 50
C[C@H]1C=C2C=C[C@H](C)[C@H](CC[C@@H]3C[C@@H](O[Si](C)(C)C(C)(C)C)CC(=O)O3)[C@H]2[C@@H](OC(=O)NCCC2CCN(C(=O)COc3cccc4c3C(=O)N(C3CCC(=O)NC3=O)C4=O)CC2)C1 (stereo partly drawn) [Compound 80, (1S,3R,7S,8S,8aR)-8-(2-((2R,4R)-4-((tert-butyldimethylsilyl)oxy)-6-oxotetrahydro-2H-pyran-2-yl)ethyl)-3,7-dimethyl-1,2,3,7,8,8a-hexahydronaphthalen-1-yl (2-(1-(2-((2-(2,6-dioxopiperidin-3-yl)-1,3-dioxoisoindolin-4-yl)oxy)acetyl)piperidin-4-yl)ethyl)carbamate]	< 50
C[C@H]1C=C2C=C[C@H](C)[C@H](CC[C@@H]3C[C@@H](O)CC(=O)O3)[C@H]2[C@@H](OC(=O)NCCC2CCN(C(=O)COc3cccc4c3C(=O)N(C3CCC(=O)NC3=O)C4=O)CC2)C1 (stereo partly drawn) [Compound 81, (1S,3R,7S,8S,8aR)-8-(2-((2R,4R)-4-hydroxy-6-oxotetrahydro-2H-pyran-2-yl)ethyl)-3,7-dimethyl-1,2,3,7,8,8a-hexahydronaphthalen-1-yl (2-(1-(2-((2-(2,6-dioxopiperidin-3-yl)-1,3-dioxoisoindolin-4-yl)oxy)acetyl)piperidin-4-yl)ethyl)carbamate]	< 50
